Measurements: ChEMBL document CHEMBL2375211, “2-methoxyjuglone induces apoptosis in HepG2 human hepatocellular carcinoma cells and exhibits in vivo antitumor activity in a H22 mouse hepatocellular carcinoma model” (J Nat Prod, 2013)

How the values were obtained:
H22 = assay: Antitumor activity against mouse H22 cells allografted in Kunming mouse assessed as decrease in weight of tumor mass at 20 mg/kg/day, ip administered 8 days measured after 10 days relative to control; type: functional; design: scale not given: the % may be the effect or the level left; conditions: route intraperitoneal
Mus musculus = assay: Toxicity in Kunming mouse allografted with mouse H22 cells assessed as decrease in body weight at 20 mg/kg/day, ip measured every day for 8 days; type: organism-based; design: route intraperitoneal; conditions: in vivo, 192 h

For `O=c1[nH]cc(F)c(=O)[nH]1` [FLUOROURACIL], the Activity (H22) was 81% and the Activity (Mus musculus) was “Toxic”.
